Data: patent US10130590B2, “Methods of treating cancer with atovaquone-related compounds” (DANA-FARBER CANCER INSTITUTE, INC., priority 2013, dated 2018)

Experiments:
STAT3 [1] = assay: STAT3-luc reporter cells, IL-6 stimulated luciferase; format: cell-based; details: 10, 20, 30, or 40 μM for 1 hour, then IL-6 (10 ng/ml) 5 hours; relative to controls
Method: (§1) Western blotting was performed as previously described (Battle T E, Arbiser J, & Frank D A (2005) The natural product honokiol induces caspase dependent apoptosis in B-cell chronic lymphocytic leukemia (B-CLL) cells. Blood 106(2):690-697). Antibodies to phospho-MAPK (9101), total MAPK (9102), phospho-Y705 STAT3 (9131), phospho-S6 (2215), total S6 (2217), phospho-4E-BP1 (9451), total 4E-BP1 (9644), total RSK (9355), phospho-S6K (9234, 85 used at 1:5000), total S6K (2708), phospho-eIF2α (9721, used at 1:1000), total eIF2α (5324), ATF4 (11815, used at 1:1000), PDGFRβ (3169), IGF1Rβ (9750), EGFR (2232), and HER2 (2242) were from Cell Signaling Technology. Phospho-RSK antibody was from R&D (AF889). Antibodies to total STAT3 (sc-482) and gp130 (sc-656, used at 1:1000) were from Santa Cruz Biotechnology. Phospho-S727 STAT3 antibody was described previously (229). REDD1 antibody was from Proteintech (10638-1-AP, used at 1:1000). Antibody recognizing full-length and cleaved ATF6 was from Abcam (ab122897, used at 1:1000). Antibodies to tubulin (T5168) and beta actin (A5316) were from Sigma. All antibodies were used at 1:10000 dilution for western blot unless otherwise noted. For immunoprecipitations, cells were lysed in 500 μl lysis buffer (0.5% NP-40, 150 mM NaCl, 50 mM Tris pH 7.5, with protease and phosphatase inhibitors freshly added at 1:100 [Pierce, PI78443]) on ice for 15 minutes, then centrifuged for 10 minutes at 14,000 RPM and 4° C. The supernatant was transferred to a new tube and incubated with 10 μl JAK2 antibody (Santa Cruz sc-278) or a mix of two TYK2 antibodies, 10 μl of each (Santa Cruz sc-5271 and Cell Signaling Technology 9312). Immunoprecipitation was performed overnight at 4° C. with rotation. The next day, 75 μl of protein A/G beads (Santa Cruz sc-2003) were washed twice in lysis buffer, then incubated with immunoprecipitates overnight as before. The next day, the beads were spun down (1 min. at 7,500 RPM and 4° C.) and washed 3 times with 650 μl lysis buffer for 10 minutes at 4° C. with rotation, then boiled in 50 μl sample buffer+10% β-mercaptoethanol. For Western blot, 20 μl were loaded per lane. For detection of phospho-tyrosine, a mixture of two pan-phospho-tyrosine antibodies (Cell Signaling Technology 9411 and 9416, 1:1000 of each) was used. Antibody to phospho-Y1007/1008 JAK2 was from Cell Signaling 86 Technology (3771, used at 1:1000). Antibody to phospho-Y570 JAK2 was from Millipore (09-241, used at 1:1000). Luminometric Assays Luciferase reporter cell lines were described previously (186). Firefly luciferase values were normalized by concurrent cell viability. Cell viability was measured as ATP-dependent luminescence by Cell Titer Glo (Promega).
To determine if atovaquone inhibits STAT3, it was tested in a cell-based reporter system of STAT3 transcriptional activity (Nelson E A, et al. (2008) Nifuroxazide inhibits survival of multiple myeloma cells by directly inhibiting STAT3. Blood 112(13):5095-5102). These cells lack basal STAT3 activation; upon IL-6 treatment, STAT3 becomes activated and drives transcription of a STAT3-dependent luciferase reporter gene. […] Activity of firefly luciferase was measured and normalized by cell viability (Cell Titer Glo). […]
STAT3-luc reporter cells were pre-treated with atovaquone, buparvaquone or TDBHN (concentration 10, 20, 30, or 40 μM) for 1 hour, then stimulated with IL-6 (10 ng/ml) for 5 hours. The activity of firefly luciferase was measured and normalized by cell viability (Cell Titer Glo).

STAT3 [2] = assay: Western blot of STAT3 phosphorylation in reporter and cancer cell lines; format: cell-based, human; details: U266, 2.5 hours; for STAT3 phosphorylation (analogs): buparvaquone 12.5 or 25 μM, Sigma analog 1, 5, or 25 μM, relative to vehicle; for STAT3 phosphorylation with UPR activators: tunicamycin 5 μg/ml, thapsigargin 1 μM, brefeldin A 3 μg/ml
Method: as §1
The mechanism by which atovaquone inhibits STAT3 was investigated. STAT3-luc reporter cells were pre-treated with atovaquone (20 μM) for 1 hr, and then stimulated with IL-6 (10 ng/ml) for 15 minutes, 30 minutes, 1 hours, or 2 hours. Since STAT3 transcriptional activity is critically dependent on tyrosine phosphorylation, Western blotting was performed to see if atovaquone affected STAT3 phosphorylation. […] Next, atovaquone was used to treat U266 (2.5 hours), HEL (6 hours), or INA-6 cells (4 hours). […] In U266 and INA-6 cells, the source of STAT3 activation is JAK-dependent IL-6 signaling, while in HEL cells, STAT3 is activated by mutant JAK2-V617F. Given that atovaquone inhibits constitutive STAT3 activation in cancer cells, it was asked whether atovaquone inhibits expression of endogenous STAT3 target genes in this context.
Since atovaquone reduced gp130 expression at the cell surface, it was asked whether this effect was accompanied by reduced total gp130 in the cell. To address this question, a time course of atovaquone treatment was performed and total cellular gp130 was measured by Western blotting in U266 cells treated with atovaquone at 20 μM. […]

mTOR pathway = assay: Western blot of mTOR pathway markers (S6, S6K, 4E-BP1); format: cell-based; details: U266, 2.5 hours; buparvaquone 12.5 or 25 μM, Sigma analog 1, 5, or 25 μM; relative to vehicle
Method: as §1
K562 cells were treated with atovaquone (20 μM) or rapamycin (10 nM) for 1 hour or 5 hours, then analyzed by Western blot. […] The requirement for prolonged treatment to observe mTOR inhibition raised the possibility that this effect was mediated by an induced factor. To test this hypothesis, cells were pretreated with cycloheximide, a protein synthesis inhibitor. K562 cells were pre-treated with vehicle or cycloheximide (2 μg/ml) for 1 hour, then treated with vehicle or atovaquone (20 μM) for 5 hours. […] Similar results were obtained with actinomycin D, an inhibitor of mRNA synthesis.
To evaluate the role of REDD1, RNA interference was used to knock down its expression in adherent SKBR3 cells, given the relative ease of introducing siRNA into these cells. SKBR3 cells were transfected with control or REDD1 siRNA for 48 hours, then treated with atovaquone (25 μM) for 4 hours.
Next, U266 cells were treated with 12.5 or 25 μM buparvaquone or 1, 5, or 25 μM 2-(4-(trans-decahydronaphth-2-yl)butyl)-3-hydroxy-1,4-naphthoquinone (Sigma analog), or DMSO vehicle control, for 2.5 hours, after which cells were harvested and immunoblots were performed with antibodies for total and phospho STAT3 and total and phospho S6.

gp130 = assay: Flow cytometry of cell-surface gp130; format: cell-based; details: U266, 2.5 hours; atovaquone 20 μM, JAK inhibitor 1 1 μM, brefeldin A 3 μg/ml
Method: (§2) Annexin V/PI staining was performed using Annexin V:FITC Apoptosis Detection Kit I (BD Biosciences). Staining for cell cycle analysis was performed as previously described (267). Staining for cell-surface receptors was performed in 50 μl PBS+2% FBS with 2 μl antibody to IL6R (BioLegend #352803) or 5 μl antibody to gp130 (BD Biosciences #555757) for 20 minutes on ice in the dark. Cells were washed twice, then resuspended in 300 μl of the same buffer. Samples were analyzed on a BD FACSCanto II machine. Transfection and siRNA Cells were reverse-transfected using Lipofectamine RNAiMAX (Invitrogen); the culture medium was changed 24 hours later. Control siRNA (D-001210-02) and REDD1 siRNA (M-010855-01) were from Thermo Scientific Dharmacon.
Since atovaquone reduced gp130 expression at the cell surface, it was asked whether this effect was accompanied by reduced total gp130 in the cell. To address this question, a time course of atovaquone treatment was performed and total cellular gp130 was measured by Western blotting in U266 cells treated with atovaquone at 20 μM. […] Thus, it was surmised that atovaquone also rapidly downregulates cell-surface gp130, paralleling STAT3 inhibition and preceding the decrease in total gp130. […] Loss of cell-surface gp130 may be due to decreased entry into the plasma membrane or increased internalization. In either case, the decrease in total gp130 observed at longer time points is likely due to degradation of relatively unstable intracellular gp130.

IL-6 receptor = assay: Flow cytometry of cell-surface IL-6 receptor; format: cell-based, human; details: U266, 2.5 hours; atovaquone 20 μM, brefeldin A 3 μg/ml
Method: as §2

| Molecule | STAT-3 reporter gene expression (STAT3 [1]) | STAT3 phosphorylation (analogs) (STAT3 [2]) | S6 phosphorylation (analogs) (mTOR pathway) | cell-surface expression of gp130 (gp130) | STAT3 phosphorylation with UPR activators (STAT3 [2]) | other results |
| --- | --- | --- | --- | --- | --- | --- |
| O=C1C(O)=C(CCCCC2CC[C@H]3CCCC[C@@H]3C2)C(=O)c2ccccc21 (relative stereo) [TDBHN, 2-(4-(trans-decahydronaphth-2-yl)butyl)-3-hydroxy-1,4-naphthoquinone] | inhibited STAT-3 reporter gene expression | inhibited STAT3 and S6 phosphorylation at all concentrations tested | inhibited STAT3 and S6 phosphorylation at all concentrations tested |  |  |  |
| CC(C)(C)c1nc2c3cc[nH]c(=O)c3c3cc(F)ccc3c2[nH]1 [JAK inhibitor 1] |  |  |  | did not affect gp130 expression |  |  |
| C/C=C(/C)C(=O)O[C@H]1C(C)=C2[C@H]([C@@H]1OC(=O)CCCCCCC)[C@@](C)(OC(C)=O)C[C@H](OC(=O)CCC)[C@@]1(O)[C@H]2OC(=O)[C@@]1(C)O [Thapsigargin] |  |  |  |  | only brefeldin A decreased STAT3 phosphorylation |  |
| C[C@H]1CCC/C=C/[C@@H]2C[C@H](O)C[C@H]2[C@H](O)/C=C/C(=O)O1 [brefeldin A] |  |  |  | reduced the cell surface expression of both gp130 and IL-6 receptor | decreased STAT3 phosphorylation | cell-surface expression of IL-6 receptor (IL-6 receptor): reduced the cell surface expression of both gp130 and IL-6 receptor |
| CC(C)(C)C1CCC(CC2=C(O)C(=O)c3ccccc3C2=O)CC1 (stereo not drawn) [buparvaquone, 2((4-tert-butylcyclohexyl)methyl)-3-hydroxy-1,4-naphthoquinone] | inhibited STAT-3 reporter gene expression | inhibited STAT3 and S6 phosphorylation at all concentrations tested | inhibited STAT3 and S6 phosphorylation at all concentrations tested |  |  |  |
| Tunicamycin |  |  |  |  | only brefeldin A decreased STAT3 phosphorylation |  |
